Measured values published in PubChem BioAssay (NCI).
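Briefly, cells in 96-well plates were exposed to five compound concentrations for 48 h, and endpoints were estimated by linear interpolation. Abbreviation: GI50, concentration required for 50% inhibition of growth. The concentration for full growth arrest is given as TGI.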

Legend:
Experiment in all cases: DTP human tumour cell line panel, 48 h
HOP-92 NSCLC = system: HOP-92 NSCLC
SK-MEL-5 melanoma = system: SK-MEL-5 melanoma
OVCAR-3 ovarian = system: OVCAR-3 ovarian
SW-620 colon = system: SW-620 colon
SF-295 CNS = system: SF-295 CNS
KM12 colon = system: KM12 colon
ACHN renal = system: ACHN renal
UO-31 renal = system: UO-31 renal
COLO 205 colon = system: COLO 205 colon
PC-3 prostate = system: PC-3 prostate
HCC-2998 colon = system: HCC-2998 colon
HCT-116 colon = system: HCT-116 colon
OVCAR-4 ovarian = system: OVCAR-4 ovarian
HOP-62 NSCLC = system: HOP-62 NSCLC
T-47D breast = system: T-47D breast
MCF7 breast = system: MCF7 breast
HCT-15 colon = system: HCT-15 colon
RXF 393 renal = system: RXF 393 renal
NCI-H460 lung = system: NCI-H460 lung
SF-539 CNS = system: SF-539 CNS
SK-MEL-28 melanoma = system: SK-MEL-28 melanoma
MALME-3M melanoma = system: MALME-3M melanoma
MDA-MB-231 breast = system: MDA-MB-231 breast
CAKI-1 renal = system: CAKI-1 renal
SN12C renal = system: SN12C renal
SF-268 CNS = system: SF-268 CNS
HT29 colon = system: HT29 colon
MDA-N = system: MDA-N
DU-145 prostate = system: DU-145 prostate
NCI/ADR-RES ovarian = system: NCI/ADR-RES ovarian
SNB-19 CNS = system: SNB-19 CNS
MDA-MB-435 = system: MDA-MB-435
A498 renal = system: A498 renal
MOLT-4 leukemia = system: MOLT-4 leukemia
UACC-62 melanoma = system: UACC-62 melanoma
NCI-H522 lung = system: NCI-H522 lung
TK-10 renal = system: TK-10 renal
NCI-H23 lung = system: NCI-H23 lung
OVCAR-5 ovarian = system: OVCAR-5 ovarian
M14 melanoma = system: M14 melanoma
786-0 renal = system: 786-0 renal
A549 NSCLC = system: A549 NSCLC
OVCAR-8 ovarian = system: OVCAR-8 ovarian
SK-MEL-2 melanoma = system: SK-MEL-2 melanoma
SK-OV-3 ovarian = system: SK-OV-3 ovarian
U251 CNS = system: U251 CNS
HS 578T breast = system: HS 578T breast
K-562 leukemia = system: K-562 leukemia
EKVX NSCLC = system: EKVX NSCLC
UACC-257 melanoma = system: UACC-257 melanoma
CCRF-CEM leukemia = system: CCRF-CEM leukemia
RPMI-8226 leukemia = system: RPMI-8226 leukemia
LOX IMVI melanoma = system: LOX IMVI melanoma
HL-60(TB) leukemia = system: HL-60(TB) leukemia
SNB-75 CNS = system: SNB-75 CNS
NCI-H226 lung = system: NCI-H226 lung
SR leukemia = system: SR leukemia
IGROV1 ovarian = system: IGROV1 ovarian
BT-549 breast = system: BT-549 breast

## CNc1ncnc2c1nc(NC1CCCC1)n2C1OC(CO)C(O)C1O (stereo not given)
HOP-92 NSCLC
  TGI: > 100 µM
SK-MEL-5 melanoma
  TGI: > 100 µM
OVCAR-3 ovarian
  TGI: > 100 µM
SW-620 colon
  TGI: > 100 µM
SF-295 CNS
  TGI: > 100 µM
KM12 colon
  TGI: > 100 µM
ACHN renal
  TGI: > 100 µM
UO-31 renal
  TGI: > 100 µM
COLO 205 colon
  TGI: > 100 µM
PC-3 prostate
  TGI: > 100 µM
HCC-2998 colon
  TGI: > 100 µM
HCT-116 colon
  TGI: > 100 µM
OVCAR-4 ovarian
  TGI: > 100 µM
HOP-62 NSCLC
  TGI: > 100 µM
T-47D breast
  TGI: > 100 µM
MCF7 breast
  TGI: > 100 µM
HCT-15 colon
  TGI: > 100 µM
RXF 393 renal
  TGI: > 100 µM
NCI-H460 lung
  TGI: > 100 µM
SF-539 CNS
  TGI: > 100 µM
SK-MEL-28 melanoma
  TGI: > 100 µM
MALME-3M melanoma
  TGI: > 100 µM
MDA-MB-231 breast
  TGI: > 100 µM
CAKI-1 renal
  TGI: > 100 µM
SN12C renal
  TGI: > 100 µM
SF-268 CNS
  TGI: > 100 µM
HT29 colon
  TGI: > 100 µM
MDA-N
  TGI: > 100 µM
DU-145 prostate
  TGI: > 100 µM
NCI/ADR-RES ovarian
  TGI: > 100 µM
SNB-19 CNS
  TGI: > 100 µM
MDA-MB-435
  TGI: > 100 µM
A498 renal
  TGI: > 100 µM
MOLT-4 leukemia
  TGI: > 100 µM
UACC-62 melanoma
  TGI: > 100 µM
NCI-H522 lung
  TGI: > 100 µM
TK-10 renal
  TGI: > 100 µM
NCI-H23 lung
  TGI: > 100 µM
OVCAR-5 ovarian
  TGI: > 100 µM
M14 melanoma
  TGI: > 100 µM
786-0 renal
  TGI: > 100 µM
A549 NSCLC
  TGI: > 100 µM
OVCAR-8 ovarian
  TGI: > 100 µM
SK-MEL-2 melanoma
  TGI: > 100 µM
SK-OV-3 ovarian
  TGI: > 100 µM
U251 CNS
  TGI: > 100 µM

## CC(=O)OC1[C@H](OC(C)=O)C2=C(C)[C@@H](OC(C)=O)C[C@@]2(C(C)(C)O)[C@@H](OC(C)=O)[C@H]2[C@@]1(C)[C@@H](OC(C)=O)CC(OC(C)=O)[C@]21CO1 (stereo not given in full)
SK-MEL-5 melanoma
  TGI: > 100 µM
OVCAR-3 ovarian
  TGI: > 100 µM
SW-620 colon
  TGI: > 100 µM
SF-295 CNS
  TGI: > 100 µM
KM12 colon
  TGI: > 100 µM
ACHN renal
  TGI: > 100 µM
UO-31 renal
  TGI: > 100 µM
COLO 205 colon
  TGI: > 100 µM
PC-3 prostate
  TGI: > 100 µM
HCT-116 colon
  TGI: > 100 µM
OVCAR-4 ovarian
  TGI: > 100 µM
HOP-62 NSCLC
  TGI: > 100 µM
T-47D breast
  TGI: > 100 µM
MCF7 breast
  TGI: > 100 µM
HCT-15 colon
  TGI: > 100 µM
RXF 393 renal
  TGI: > 100 µM
HS 578T breast
  TGI: > 100 µM
SF-539 CNS
  TGI: > 100 µM
SK-MEL-28 melanoma
  TGI: > 100 µM
MALME-3M melanoma
  TGI: > 100 µM
K-562 leukemia
  TGI: > 100 µM
EKVX NSCLC
  TGI: > 100 µM
UACC-257 melanoma
  TGI: > 100 µM
CCRF-CEM leukemia
  TGI: > 100 µM
RPMI-8226 leukemia
  TGI: > 100 µM
CAKI-1 renal
  TGI: > 100 µM
LOX IMVI melanoma
  TGI: > 100 µM
HL-60(TB) leukemia
  TGI: > 100 µM
SN12C renal
  TGI: > 100 µM
SF-268 CNS
  TGI: > 100 µM
HT29 colon
  TGI: > 100 µM
MDA-N
  TGI: > 100 µM
DU-145 prostate
  TGI: > 100 µM
SNB-75 CNS
  TGI: > 100 µM
SNB-19 CNS
  TGI: > 100 µM
MDA-MB-435
  TGI: > 100 µM
MOLT-4 leukemia
  TGI: > 100 µM
UACC-62 melanoma
  TGI: > 100 µM
NCI-H522 lung
  TGI: > 100 µM
TK-10 renal
  TGI: > 100 µM
NCI-H23 lung
  TGI: > 100 µM
NCI-H226 lung
  TGI: > 100 µM
SR leukemia
  TGI: > 100 µM
OVCAR-5 ovarian
  TGI: > 100 µM
M14 melanoma
  TGI: > 100 µM
786-0 renal
  TGI: > 100 µM
A549 NSCLC
  TGI: > 100 µM
OVCAR-8 ovarian
  TGI: > 100 µM
SK-MEL-2 melanoma
  TGI: > 100 µM
SK-OV-3 ovarian
  TGI: > 100 µM
U251 CNS
  TGI: > 100 µM

## COc1cc2c(c(OC)c1OC)-c1ccc(N=NC(N)=S)c(=O)cc1[C@@H](NC(C)=O)CC2
HOP-92 NSCLC
  GI50: 1.97 µM
  TGI: 98.8 µM
SK-MEL-5 melanoma
  GI50: 0.324 µM
  TGI: 1.24 µM
OVCAR-3 ovarian
  GI50: 0.263 µM
  TGI: 0.642 µM
SW-620 colon
  GI50: 0.421 µM
  TGI: > 100 µM
SF-295 CNS
  GI50: 1.45 µM
  TGI: > 100 µM
KM12 colon
  GI50: 0.394 µM
ACHN renal
  GI50: 5.08 µM
  TGI: > 100 µM
UO-31 renal
  GI50: 6.92 µM
  TGI: > 100 µM
COLO 205 colon
  GI50: 0.26 µM
  TGI: 0.682 µM
IGROV1 ovarian
  GI50: 0.482 µM
PC-3 prostate
  GI50: 0.617 µM
  TGI: > 100 µM
HCC-2998 colon
  GI50: 0.311 µM
  TGI: 1.76 µM
HCT-116 colon
  GI50: 0.396 µM
OVCAR-4 ovarian
  GI50: 1.43 µM
  TGI: > 100 µM
HOP-62 NSCLC
  GI50: 1.8 µM
  TGI: > 100 µM
T-47D breast
  GI50: 0.361 µM
  TGI: > 100 µM
MCF7 breast
  GI50: 0.364 µM
  TGI: > 100 µM
HCT-15 colon
  GI50: 6 µM
  TGI: > 100 µM
RXF 393 renal
  GI50: 0.937 µM
  TGI: > 100 µM
NCI-H460 lung
  GI50: 0.418 µM
  TGI: 12.2 µM
HS 578T breast
  GI50: 0.294 µM
SF-539 CNS
  GI50: 0.311 µM
SK-MEL-28 melanoma
  GI50: 0.808 µM
  TGI: > 100 µM
MALME-3M melanoma
  TGI: > 100 µM
K-562 leukemia
  GI50: 0.425 µM
  TGI: > 100 µM
EKVX NSCLC
  GI50: > 100 µM
  TGI: > 100 µM
UACC-257 melanoma
  GI50: > 100 µM
  TGI: > 100 µM
MDA-MB-231 breast
  GI50: 0.592 µM
  TGI: > 27.7 µM
CCRF-CEM leukemia
  GI50: 0.535 µM
  TGI: > 100 µM
RPMI-8226 leukemia
  GI50: 0.708 µM
  TGI: > 100 µM
CAKI-1 renal
  GI50: > 24.4 µM
  TGI: > 100 µM
LOX IMVI melanoma
  GI50: 0.618 µM
  TGI: > 100 µM
HL-60(TB) leukemia
  GI50: 0.378 µM
SN12C renal
  GI50: 1.52 µM
  TGI: > 100 µM
SF-268 CNS
  GI50: 0.716 µM
  TGI: > 100 µM
HT29 colon
  GI50: 0.388 µM
  TGI: > 100 µM
DU-145 prostate
  GI50: 0.655 µM
  TGI: 4.66 µM
NCI/ADR-RES ovarian
  GI50: 17.5 µM
  TGI: 49.1 µM
SNB-75 CNS
  GI50: 0.256 µM
SNB-19 CNS
  GI50: 0.578 µM
  TGI: > 100 µM
MDA-MB-435
  GI50: 0.216 µM
  TGI: 0.577 µM
A498 renal
  GI50: 0.477 µM
  TGI: 3.15 µM
MOLT-4 leukemia
  GI50: 1.3 µM
  TGI: > 100 µM
UACC-62 melanoma
  GI50: 0.646 µM
  TGI: > 100 µM
NCI-H522 lung
  GI50: 0.354 µM
TK-10 renal
  GI50: 9.01 µM
  TGI: > 100 µM
NCI-H23 lung
  GI50: 0.347 µM
  TGI: > 100 µM
NCI-H226 lung
  GI50: 2.01 µM
  TGI: > 29.4 µM
SR leukemia
  GI50: 0.408 µM
  TGI: > 100 µM
OVCAR-5 ovarian
  GI50: 2.26 µM
  TGI: > 100 µM
BT-549 breast
  GI50: 0.624 µM
  TGI: > 100 µM
786-0 renal
  GI50: 1.69 µM
A549 NSCLC
  GI50: 3.63 µM
  TGI: > 100 µM
OVCAR-8 ovarian
  GI50: 2.19 µM
  TGI: > 100 µM
SK-MEL-2 melanoma
  GI50: 0.393 µM
  TGI: > 100 µM
SK-OV-3 ovarian
  GI50: 0.43 µM
U251 CNS
  GI50: 0.426 µM
  TGI: > 100 µM
